From patent US8076338B2, “Kinase modulators and methods of use” (Exelixis, Inc., priority 2004, dated 2011)

Tests used:
AktK = AktK (Homo sapiens, UniProt P31749); experiment: Luciferase-coupled chemiluminescence kinase assay (ATP consumption); assay type: biochemical; details: Table 1; class symbols per key; read-out: AKT-1 IC50
Procedure, shortened: (§1)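 Activity is read as ATP depletion: luciferase-luciferin reagent added after a 3 h ambient-temperature kinase reaction, with total ATP use limited to 25-60%. Before ATP addition, 2.5-5 nM kinase and compound were preincubated 30 min in Tris pH 7.5/MgCl2/TX-100/DTT buffer; […].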

p70S6K = p70S6K (Homo sapiens, UniProt P23443); experiment: as above; assay type: biochemical; details: Table 1; class symbols per key
Procedure, shortened: as §1

Chain of AktK (P31749 whole entry): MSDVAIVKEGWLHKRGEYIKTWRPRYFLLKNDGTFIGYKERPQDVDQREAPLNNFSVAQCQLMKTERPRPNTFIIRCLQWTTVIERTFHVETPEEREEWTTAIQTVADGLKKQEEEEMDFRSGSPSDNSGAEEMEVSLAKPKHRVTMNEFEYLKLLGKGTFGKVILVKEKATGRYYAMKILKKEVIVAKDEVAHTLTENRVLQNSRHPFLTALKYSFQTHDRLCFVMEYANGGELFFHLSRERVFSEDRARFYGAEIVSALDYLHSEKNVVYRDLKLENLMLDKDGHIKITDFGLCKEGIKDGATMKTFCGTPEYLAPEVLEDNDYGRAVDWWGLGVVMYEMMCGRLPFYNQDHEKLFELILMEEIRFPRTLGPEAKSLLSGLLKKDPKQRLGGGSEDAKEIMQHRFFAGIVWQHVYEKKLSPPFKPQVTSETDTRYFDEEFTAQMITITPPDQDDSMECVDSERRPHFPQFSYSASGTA
Chain of p70S6K (P23443 whole entry): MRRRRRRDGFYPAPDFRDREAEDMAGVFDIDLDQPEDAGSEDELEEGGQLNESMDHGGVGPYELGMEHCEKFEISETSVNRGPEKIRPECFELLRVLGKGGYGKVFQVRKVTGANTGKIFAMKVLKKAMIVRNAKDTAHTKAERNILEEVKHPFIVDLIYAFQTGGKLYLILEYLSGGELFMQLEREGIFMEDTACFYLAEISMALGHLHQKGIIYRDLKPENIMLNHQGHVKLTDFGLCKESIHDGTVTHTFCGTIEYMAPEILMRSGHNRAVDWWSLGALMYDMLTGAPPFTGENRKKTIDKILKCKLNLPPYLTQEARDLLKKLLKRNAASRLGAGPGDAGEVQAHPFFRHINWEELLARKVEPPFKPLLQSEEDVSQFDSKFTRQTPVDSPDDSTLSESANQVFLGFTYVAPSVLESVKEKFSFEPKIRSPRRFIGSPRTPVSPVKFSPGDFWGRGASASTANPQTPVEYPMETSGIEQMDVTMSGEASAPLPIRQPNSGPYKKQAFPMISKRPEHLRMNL

Row | SMILES | IC50 (AktK) [nM] | IC50 (p70S6K) [nM]
1 | Cc1c(NCCN2CCCC2)cc(OCC2CCC2)cc1N1CCN(c2ncnc3[nH]nc(Br)c23)CC1 [Entry 211, 3-[4-(3-bromo-1H-pyrazolo[3,4-d]pyrimidin-4-yl)piperazin-1-yl]-5-[(cyclobutylmethyl)oxy]-2-methyl-N-(2-pyrrolidin-1-ylethyl)aniline] | < 100 | < 100
2 | CCOc1cc(NCCN2CCCC2)c(C)c(N2CCN(c3ncnc4[nH]nc(Br)c34)CC2)c1 [Entry 212, 3-[4-(3-bromo-1H-pyrazolo[3,4-d]pyrimidin-4-yl)piperazin-1-yl]-5-(ethyloxy)-2-methyl-N-(2-pyrrolidin-1-ylethyl)aniline] | < 100 | < 100
3 | Cc1ccc(C(=O)NCCN(C)C)cc1N1CCN(c2ncnc3[nH]nc(Br)c23)CC1 [Entry 213, 3-[4-(3-bromo-1H-pyrazolo[3,4-d]pyrimidin-4-yl)piperazin-1-yl]-N-[2-(dimethylamino)ethyl]-4-methylbenzamide] | 1000 to 10000 | < 100
4 | Cc1c(NCCN2CCCC2)cc(C(=O)NC(C)(C)C)cc1N1CCN(c2ncnc3[nH]nc(Br)c23)CC1 [Entry 214, 3-[4-(3-bromo-1H-pyrazolo[3,4-d]pyrimidin-4-yl)piperazin-1-yl]-N-(1,1-dimethylethyl)-4-methyl-5-[(2-pyrrolidin-1-ylethyl)amino]benzamide] | < 100 | < 100
5 | Cc1c(NCCN2CCCC2)cc(C(=O)Nc2cccnc2)cc1N1CCN(c2ncnc3[nH]nc(Br)c23)CC1 [Entry 215, [4-(3-bromo-1H-pyrazolo[3,4-d]pyrimidin-4-yl)piperazin-1-yl]-4-methyl-N-pyridin-3-yl-5-[(2-pyrrolidin-1-ylethyl)amino]benzamide] | < 100 | < 100
6 | Cc1c(NCCN2CCCC2)cc(OCC(C)(C)F)cc1N1CCN(c2ncnc3[nH]nc(Br)c23)CC1 [Entry 216, 3-[4-(3-bromo-1H-pyrazolo[3,4-d]pyrimidin-4-yl)piperazin-1-yl]-5-[(2-fluoro-2-methylpro-pyl)oxy]-2-methyl-N-(2-pyrrolidin-1-ylethyl)aniline] | < 100 | < 100
7 | Cc1c(NCCN2CCCC2)cc(OCC2CCCCC2)cc1N1CCN(c2ncnc3[nH]nc(Br)c23)CC1 [Entry 217, 3-[4-(3-bromo-1H-pyrazolo[3,4-d]pyrimidin-4-yl)piperazin-1-yl]-5-[(cyclohexylmethyl)oxy]-2-methyl-N-(2-pyrrolidin-1-ylethyl)aniline] | 100 to 1000 | < 100
8 | Cc1c(NCCN2CCCC2)cc(OCC2CCCC2)cc1N1CCN(c2ncnc3[nH]nc(Br)c23)CC1 [Entry 218, 3-[4-(3-bromo-1H-pyrazolo[3,4-d]pyrimidin-4-yl)piperazin-1-yl]-5-[(cyclopentylmethyl)oxy]-2-methyl-N-(2-pyrrolidin-1-ylethyl)aniline] | < 100 | < 100
9 | CCNC(=O)c1cc(NCCN2CCCC2)c(C)c(N2CCN(c3ncnc4[nH]nc(Br)c34)CC2)c1 [Entry 219, 3-[4-(3-bromo-1H-pyrazolo[3,4-d]pyrimidin-4-yl)piperazin-1-yl]-N-ethyl-4-methyl-5-[(2-pyrrolidin-1-ylethyl)amino]benzamide] | < 100 | < 100
10 | Cc1c(NCCN2CCCC2)cc(OC(C)C)cc1N1CCN(c2ncnc3[nH]nc(Br)c23)CC1 [Entry 220, 3-[4-(3-bromo-1H-pyrazolo[3,4-d]pyrimidin-4-yl)piperazin-1-yl]-2-methyl-5-[(1-methylethyl)oxy]-N-(2-pyrrolidin-1-ylethyl)aniline] | < 100 | < 100
11 | Cc1c(NCCN2CCCC2)cc(OCC(C)(C)C)cc1N1CCN(c2ncnc3[nH]nc(Br)c23)CC1 [Entry 221, 3-[4-(3-bromo-1H-pyrazolo[3,4-d]pyrimidin-4-yl)piperazin-1-yl]-5-[(2,2-dimethylpropyl)oxy]-2-methyl-N-(2-pyrrolidin-1-ylethyl)aniline] | < 100 | < 100
12 | Cc1c(NCCN2CCCC2)cc(OCC2CCCO2)cc1N1CCN(c2ncnc3[nH]nc(Br)c23)CC1 (stereo not drawn) [Entry 222, 3-[4-(3-bromo-1H-pyrazolo[3,4-d]pyrimidin-4-yl)piperazin-1-yl]-2-methyl-N-(2-pyrrolidin-1-ylethyl)-5-[(tetrahydrofuran-2-ylmethyl)oxy]aniline] | < 100 | < 100
13 | COCCOc1cc(NCCN2CCCC2)c(C)c(N2CCN(c3ncnc4[nH]nc(Br)c34)CC2)c1 [Entry 223, 3-[4-(3-bromo-1H-pyrazolo[3,4-d]pyrimidin-4-yl)piperazin-1-yl]-2-methyl-5-{[2-(methyl-oxy)ethyl]oxy}-N-(2-pyrrolidin-1-ylethyl)aniline] | 100 to 1000 | < 100
14 | CCCOc1cc(NCCN2CCCC2)c(C)c(N2CCN(c3ncnc4[nH]nc(Br)c34)CC2)c1 [Entry 224, 3-[4-(3-bromo-1H-pyrazolo[3,4-d]pyrimidin-4-yl)piperazin-1-yl]-2-methyl-5-(propyloxy)-N-(2-pyrrolidin-1-ylethyl)aniline] | < 100 | < 100
15 | Cc1c(NCCN(C)C)cc(C(=O)Nc2ccccc2)cc1N1CCN(c2ncnc3[nH]nc(Br)c23)CC1 [Entry 225, 3-[4-(3-bromo-1H-pyrazolo[3,4-d]pyrimidin-4-yl)piperazin-1-yl]-5-{[2-(dimethylamino)eth-yl]amino}-4-methyl-N-phenylbenzamide] | < 100 | < 100
16 | Cc1c(NCCN(C)C)cc(OCC(C)(C)F)cc1N1CCN(c2ncnc3[nH]nc(Br)c23)CC1 [Entry 226, N′-{3-[4-(3-bromo-1H-pyrazolo[3,4-d]pyrimidin-4-yl)piperazin-1-yl]-5-[(2-fluoro-2-methylpropyl)oxy]-2-methylphenyl}-N,N-dimethyl-ethane-1,2-diamine] | < 100 | < 100
17 | Cc1c(NCCN(C)C)cc(C(=O)NC(C)C)cc1N1CCN(c2ncnc3[nH]nc(Br)c23)CC1 [Entry 227, 3-[4-(3-bromo-1H-pyrazolo[3,4-d]pyrimidin-4-yl)piperazin-1-yl]-5-{[2-(dimethylamino)eth-yl]amino}-4-methyl-N-(1-methylethyl)benzamide] | < 100 | < 100
18 | CCCCC(=O)c1cc(NCCN2CCCC2)c(C)c(N2CCN(c3ncnc4[nH]nc(Br)c34)CC2)c1 [Entry 228, 1-{3-[4-(3-bromo-1H-pyrazolo[3,4-d]pyrimidin-4-yl)piperazin-1-yl]-4-methyl-5-[(2-pyrrolidin-1-ylethyl)amino]phenyl}pentan-1-one] | < 100 | < 100
19 | Cc1c(NCCN(C)C)cc(OCC(F)(CF)CF)cc1N1CCN(c2ncnc3[nH]nc(Br)c23)CC1 [Entry 229, N′-(3-[4-(3-bromo-1H-pyrazolo[3,4-d]pyrimidin-4-yl)piperazin-1-yl]-5-{[2,3-difluoro-2-(fluorometh-yl)propyl]oxy}-2-methylphenyl)-N,N-dimethylethane-1,2-diamine] | < 100 | < 100
20 | Cc1c(NCCN2CCCC2)cc(OCC(F)(CF)CF)cc1N1CCN(c2ncnc3[nH]nc(Br)c23)CC1 [Entry 230, 3-[4-(3-bromo-1H-pyrazolo[3,4-d]pyrimidin-4-yl)piperazin-1-yl]-5-{[2,3-difluoro-2-(fluoro-methyl)propyl]oxy}-2-methyl-N-(2-pyrrolidin-1-ylethyl)aniline] | < 100 | < 100
21 | Cc1c(NCCN2CCCC2)cc(-c2ccccc2)cc1N1CCN(c2ncnc3[nH]nc(Br)c23)CC1 [Entry 231, 5-[4-(3-bromo-1H-pyrazolo[3,4-d]pyrimidin-4-yl)piperazin-1-yl]-4-methyl-N-(2-pyrrolidin-1-ylethyl)biphenyl-3-amine] | < 100 | < 100
22 | Cc1c(CCC[n+]2ccccc2)cc(-c2ccccc2)cc1N1CCN(c2ncnc3[nH]nc(Br)c23)CC1 [Entry 232, 1-(3-{5-[4-(3-bromo-1H-pyrazolo[3,4-d]pyrimidin-4-yl)piperazin-1-yl]-4-methylbiphenyl-3-yl}propyl)pyridinium] | < 100 | < 100
23 | Cc1c(NCCN2CCCC2)cc(-c2nccs2)cc1N1CCN(c2ncnc3[nH]nc(Br)c23)CC1 [Entry 233, 3-[4-(3-bromo-1H-pyrazolo[3,4-d]pyrimidin-4-yl)piperazin-1-yl]-2-methyl-N-(2-pyrrolidin-1-ylethyl)-5-(1,3-thiazol-2-yl)aniline] | < 100 | < 100
24 | Cc1c(NCCN2CCCC2)cc(C(=O)O)cc1N1CCN(c2ncnc3[nH]nc(Br)c23)CC1 [Entry 234, 3-[4-(3-bromo-1H-pyrazolo[3,4-d]pyrimidin-4-yl)piperazin-1-yl]-4-methyl-5-[(2-pyrrolidin-1-ylethyl)amino]benzoic acid] | 1000 to 10000 | < 100
25 | Cc1c(NCCN2CCCC2)cc(C#Cc2ccccc2)cc1N1CCN(c2ncnc3[nH]nc(Br)c23)CC1 [Entry 235, 3-[4-(3-bromo-1H-pyrazolo[3,4-d]pyrimidin-4-yl)piperazin-1-yl]-2-methyl-5-(phenylethynyl)-N-(2-pyrrolidin-1-ylethyl)aniline] | 100 to 1000 | < 100
26 | Cc1c(NCCN2CCCC2)cc(C(=O)c2ccccc2)cc1N1CCN(c2ncnc3[nH]nc(Br)c23)CC1 [Entry 236, {3-[4-(3-bromo-1H-pyrazolo[3,4-d]pyrimidin-4-yl)piperazin-1-yl]-4-methyl-5-[(2-pyrrolidin-1-ylethyl)amino]phenyl}(phenyl)methanone] | < 100 | < 100
27 | C#Cc1cc(NCCN2CCCC2)c(C)c(N2CCN(c3ncnc4[nH]nc(Br)c34)CC2)c1 [Entry 237, 3-[4-(3-bromo-1H-pyrazolo[3,4-d]pyrimidin-4-yl)piperazin-1-yl]-5-ethynyl-2-methyl-N-(2-pyrrolidin-1-ylethyl)aniline] | < 100 | < 100
